## Oc1ccc(OC(F)(F)F)cc1C1COC2(CCCNC2c2ccccc2)C1 (racemic) [rac-3, rac-2-(6-phenyl-1-oxa-7-azaspiro[4.5]decan-3-yl)-4-(trifluoromethoxy)phenol]
  melting point: 203 to 204 °C (dec.)

Source: patent US20160031817A1, “3-PIPERIDONE COMPOUNDS AND THEIR USE AS NEUROKININ-1 (NK1) RECEPTOR ANTAGONISTS” (NANYANG TECHNOLOGICAL UNIVERSITY, priority 2013, published 2016)
